Calls of active or inactive are those of the source. On the calls: in the data inactive means no Kd found up to 30 µM.
Columns and labels:
[1] = target: Serine/threonine-protein kinase PAK 6 (Homo sapiens, UniProt Q9NQU5)
[2] = target: Cell division cycle 7-related protein kinase (Homo sapiens, UniProt O00311)
Misshapen-like kinase 1 = Misshapen-like kinase 1 (Homo sapiens, UniProt Q8N4C8)
[3] = target: T1, Cyclin-dependent kinase-like 5 (Homo sapiens, UniProt O76039)
T1 sequence (O76039 whole entry): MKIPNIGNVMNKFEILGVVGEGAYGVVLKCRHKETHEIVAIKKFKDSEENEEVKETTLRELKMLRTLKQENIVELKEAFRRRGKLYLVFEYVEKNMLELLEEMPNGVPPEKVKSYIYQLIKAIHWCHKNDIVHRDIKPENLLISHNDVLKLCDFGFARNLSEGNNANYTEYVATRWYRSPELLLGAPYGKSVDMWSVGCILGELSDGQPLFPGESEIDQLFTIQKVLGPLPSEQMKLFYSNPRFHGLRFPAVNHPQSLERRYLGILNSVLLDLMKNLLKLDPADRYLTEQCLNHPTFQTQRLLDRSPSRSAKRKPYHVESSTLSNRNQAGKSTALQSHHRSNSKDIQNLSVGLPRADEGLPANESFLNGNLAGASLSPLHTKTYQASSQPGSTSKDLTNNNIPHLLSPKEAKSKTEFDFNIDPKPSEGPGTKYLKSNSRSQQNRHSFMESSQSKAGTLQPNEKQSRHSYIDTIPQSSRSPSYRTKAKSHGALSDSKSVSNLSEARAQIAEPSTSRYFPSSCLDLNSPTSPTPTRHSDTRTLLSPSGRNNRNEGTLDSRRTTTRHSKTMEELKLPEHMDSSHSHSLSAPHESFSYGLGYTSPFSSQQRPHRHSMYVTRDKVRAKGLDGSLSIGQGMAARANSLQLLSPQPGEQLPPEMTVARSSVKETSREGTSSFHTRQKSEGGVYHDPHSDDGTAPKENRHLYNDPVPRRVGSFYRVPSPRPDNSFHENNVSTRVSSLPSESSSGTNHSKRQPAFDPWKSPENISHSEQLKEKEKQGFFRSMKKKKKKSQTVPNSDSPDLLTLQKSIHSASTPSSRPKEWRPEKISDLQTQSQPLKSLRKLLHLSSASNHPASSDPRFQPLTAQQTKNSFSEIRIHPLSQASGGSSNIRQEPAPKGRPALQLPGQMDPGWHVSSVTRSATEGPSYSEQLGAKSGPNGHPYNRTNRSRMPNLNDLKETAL

[4] = target: T2, Dual specificity protein kinase TTK (Homo sapiens, UniProt P33981)
T2 sequence (P33981 whole entry): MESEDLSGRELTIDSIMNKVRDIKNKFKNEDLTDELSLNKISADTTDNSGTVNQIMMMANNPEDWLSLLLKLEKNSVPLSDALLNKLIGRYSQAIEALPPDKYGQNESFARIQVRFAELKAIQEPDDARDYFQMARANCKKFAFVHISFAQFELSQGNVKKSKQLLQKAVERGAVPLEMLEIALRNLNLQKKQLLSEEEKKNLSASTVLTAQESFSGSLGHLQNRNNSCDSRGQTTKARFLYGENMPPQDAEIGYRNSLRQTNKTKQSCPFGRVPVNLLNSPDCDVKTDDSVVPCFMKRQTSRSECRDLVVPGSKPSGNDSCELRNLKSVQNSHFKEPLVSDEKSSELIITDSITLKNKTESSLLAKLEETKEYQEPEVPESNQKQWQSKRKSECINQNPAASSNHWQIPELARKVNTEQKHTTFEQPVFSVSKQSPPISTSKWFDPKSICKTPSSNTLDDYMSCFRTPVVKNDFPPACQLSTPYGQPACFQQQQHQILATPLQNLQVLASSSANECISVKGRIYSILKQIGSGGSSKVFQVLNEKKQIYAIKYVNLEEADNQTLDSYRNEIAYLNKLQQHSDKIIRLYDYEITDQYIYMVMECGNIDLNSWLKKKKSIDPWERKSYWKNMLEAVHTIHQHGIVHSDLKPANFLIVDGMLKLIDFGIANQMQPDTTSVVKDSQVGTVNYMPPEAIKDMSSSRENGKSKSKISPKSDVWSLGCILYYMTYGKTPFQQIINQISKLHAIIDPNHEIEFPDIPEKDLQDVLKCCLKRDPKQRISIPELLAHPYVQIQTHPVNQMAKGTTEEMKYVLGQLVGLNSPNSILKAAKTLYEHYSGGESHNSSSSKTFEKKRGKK

[5] = target: T3, Dual specificity mitogen-activated protein kinase kinase 4 (Homo sapiens, UniProt P45985)
T3 sequence (P45985 whole entry): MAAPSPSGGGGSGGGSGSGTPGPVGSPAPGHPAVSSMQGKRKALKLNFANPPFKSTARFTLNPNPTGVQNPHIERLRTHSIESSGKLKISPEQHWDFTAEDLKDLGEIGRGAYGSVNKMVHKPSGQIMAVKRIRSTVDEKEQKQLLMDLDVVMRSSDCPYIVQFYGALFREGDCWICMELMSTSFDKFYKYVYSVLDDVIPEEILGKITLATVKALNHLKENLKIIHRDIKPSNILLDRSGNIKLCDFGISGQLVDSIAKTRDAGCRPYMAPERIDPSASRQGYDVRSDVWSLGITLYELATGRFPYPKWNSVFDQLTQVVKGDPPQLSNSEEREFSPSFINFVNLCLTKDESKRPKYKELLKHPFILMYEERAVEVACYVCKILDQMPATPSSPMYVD

Misshapen-like kinase 1, sequence (Q8N4C8 whole entry): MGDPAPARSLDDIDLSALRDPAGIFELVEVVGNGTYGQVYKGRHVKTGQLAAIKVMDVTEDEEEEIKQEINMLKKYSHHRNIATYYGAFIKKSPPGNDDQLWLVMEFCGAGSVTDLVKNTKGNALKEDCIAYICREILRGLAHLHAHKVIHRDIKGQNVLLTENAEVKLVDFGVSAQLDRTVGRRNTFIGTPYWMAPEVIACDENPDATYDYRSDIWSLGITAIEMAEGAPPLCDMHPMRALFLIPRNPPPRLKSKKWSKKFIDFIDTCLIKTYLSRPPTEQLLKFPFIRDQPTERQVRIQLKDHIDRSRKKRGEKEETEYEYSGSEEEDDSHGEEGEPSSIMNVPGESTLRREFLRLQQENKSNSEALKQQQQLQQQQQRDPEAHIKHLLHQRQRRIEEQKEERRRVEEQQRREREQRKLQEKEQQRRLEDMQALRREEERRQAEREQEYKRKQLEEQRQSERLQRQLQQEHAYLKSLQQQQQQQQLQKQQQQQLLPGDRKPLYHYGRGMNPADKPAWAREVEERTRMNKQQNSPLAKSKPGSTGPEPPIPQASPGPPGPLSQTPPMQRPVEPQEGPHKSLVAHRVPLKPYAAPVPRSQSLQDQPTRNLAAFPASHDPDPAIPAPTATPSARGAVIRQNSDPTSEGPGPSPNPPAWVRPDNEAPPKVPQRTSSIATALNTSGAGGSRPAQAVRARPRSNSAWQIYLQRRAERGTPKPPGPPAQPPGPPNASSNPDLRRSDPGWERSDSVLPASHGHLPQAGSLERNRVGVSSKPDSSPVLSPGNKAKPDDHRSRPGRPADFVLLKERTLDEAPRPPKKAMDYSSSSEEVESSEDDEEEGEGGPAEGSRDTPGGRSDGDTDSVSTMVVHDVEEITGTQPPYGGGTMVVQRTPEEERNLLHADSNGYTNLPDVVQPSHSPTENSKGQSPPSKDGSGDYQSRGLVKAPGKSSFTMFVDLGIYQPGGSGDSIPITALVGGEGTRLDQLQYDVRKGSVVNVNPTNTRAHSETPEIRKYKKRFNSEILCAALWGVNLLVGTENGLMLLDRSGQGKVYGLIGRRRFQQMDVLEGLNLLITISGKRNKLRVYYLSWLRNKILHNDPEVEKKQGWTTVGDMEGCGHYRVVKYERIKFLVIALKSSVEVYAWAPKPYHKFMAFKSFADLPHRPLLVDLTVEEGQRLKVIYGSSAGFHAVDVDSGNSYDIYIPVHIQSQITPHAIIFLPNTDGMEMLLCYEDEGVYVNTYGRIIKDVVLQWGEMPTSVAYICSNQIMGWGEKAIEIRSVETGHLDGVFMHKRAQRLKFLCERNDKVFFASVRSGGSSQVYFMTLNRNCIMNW
Cell division cycle 7-related protein kinase, sequence (O00311 whole entry): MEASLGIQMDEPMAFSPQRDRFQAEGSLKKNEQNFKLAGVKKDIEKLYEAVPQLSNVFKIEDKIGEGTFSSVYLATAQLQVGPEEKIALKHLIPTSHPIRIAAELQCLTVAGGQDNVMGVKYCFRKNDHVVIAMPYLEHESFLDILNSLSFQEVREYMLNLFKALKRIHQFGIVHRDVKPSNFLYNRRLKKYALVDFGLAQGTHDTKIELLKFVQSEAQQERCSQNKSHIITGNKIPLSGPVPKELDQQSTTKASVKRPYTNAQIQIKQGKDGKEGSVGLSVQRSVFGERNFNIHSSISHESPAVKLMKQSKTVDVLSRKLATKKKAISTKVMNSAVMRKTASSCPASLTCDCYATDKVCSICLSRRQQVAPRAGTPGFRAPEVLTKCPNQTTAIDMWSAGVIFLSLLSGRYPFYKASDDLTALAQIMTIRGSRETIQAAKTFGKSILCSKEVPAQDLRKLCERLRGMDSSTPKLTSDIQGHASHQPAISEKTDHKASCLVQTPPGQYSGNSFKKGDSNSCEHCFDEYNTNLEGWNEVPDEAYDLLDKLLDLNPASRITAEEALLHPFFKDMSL
Serine/threonine-protein kinase PAK 6, sequence (Q9NQU5 whole entry): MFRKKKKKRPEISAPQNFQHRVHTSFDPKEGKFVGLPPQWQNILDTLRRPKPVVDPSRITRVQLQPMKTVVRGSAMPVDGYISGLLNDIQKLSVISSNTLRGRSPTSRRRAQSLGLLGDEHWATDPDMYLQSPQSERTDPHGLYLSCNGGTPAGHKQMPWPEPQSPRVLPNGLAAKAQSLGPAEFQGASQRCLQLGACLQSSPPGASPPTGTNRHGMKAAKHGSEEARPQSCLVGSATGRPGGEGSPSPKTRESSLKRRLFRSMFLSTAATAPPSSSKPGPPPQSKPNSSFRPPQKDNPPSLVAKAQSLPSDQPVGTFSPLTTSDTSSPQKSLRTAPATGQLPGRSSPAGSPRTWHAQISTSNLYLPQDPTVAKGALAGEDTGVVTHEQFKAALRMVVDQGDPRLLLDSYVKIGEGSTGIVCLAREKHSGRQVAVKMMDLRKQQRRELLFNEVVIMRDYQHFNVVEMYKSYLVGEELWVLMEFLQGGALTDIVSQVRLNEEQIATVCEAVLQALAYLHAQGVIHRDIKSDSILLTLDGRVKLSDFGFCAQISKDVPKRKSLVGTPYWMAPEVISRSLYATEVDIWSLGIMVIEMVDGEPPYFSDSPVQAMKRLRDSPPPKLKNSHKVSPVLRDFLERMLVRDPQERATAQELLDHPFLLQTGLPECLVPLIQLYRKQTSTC

Structure (SMILES)	Kd [1]	Kd [2]	Kd (Misshapen-like kinase 1)	Kd [3]	Kd [4]	Kd [5]
Cn1cc(-c2cnc3ccc4ccc(CS(=O)(=O)NCc5ccccn5)cc4c(=O)c3c2)cn1 [MK-8033]	> 30 µM (inactive)	> 30 µM (inactive)	–	–	–	–
CN(C[C@@H]1COCCO1)S(=O)(=O)Nc1ccc2ccc3ncc(-c4cnn(C)c4)cc3c(=O)c2c1 [MK-2461]	–	> 30 µM (inactive)	> 30 µM (inactive)	–	–	–
CN1C/C=C/CCOc2cccc(c2)-c2ccnc(n2)Nc2cccc(c2)C1 [ZOTIRACICLIB]	–	–	–	> 30 µM (inactive)	–	–
Cc1nc2cc(-n3ncc(C(=O)c4cc5ccccc5[nH]4)c3N)ccc2[nH]1 [FGFR INHIBITOR DEBIO 1347]	–	> 30 µM (inactive)	–	> 30 µM (inactive)	–	–
CCn1cc(-c2ccnc3[nH]c(-c4cccc(CN(C)C)c4)cc23)c(-c2ccc(NC(=O)N(C)C)cc2)n1 [GSK-1070916]	> 30 µM (inactive)	–	–	> 30 µM (inactive)	> 30 µM (inactive)	> 30 µM (inactive)
N#CC1(c2ccc(NC(=O)c3cccnc3NCc3ccncc3)cc2)CCCC1 [RIVOCERANIB]	> 30 µM (inactive)	> 30 µM (inactive)	–	> 30 µM (inactive)	> 30 µM (inactive)	–
CCNC(=O)C#Cc1ccc2c(c1)NC(=O)/C2=C(\Nc1ccc(CN(C)C)cc1)c1ccccc1	–	3.99 µM (active)	> 30 µM (inactive)	0.02 µM (active)	–	–
CC(C)c1cc(CNc2nc(Nc3cc(C4CC4)[nH]n3)cc(N3CCN(C)CC3)n2)on1 [XL-228]	> 30 µM (inactive)	–	–	> 30 µM (inactive)	> 30 µM (inactive)	–
CO[C@H]1C[C@@H]2CC[C@@H](C)[C@@](O)(O2)C(=O)C(=O)N2CCCC[C@H]2C(=O)O[C@H]([C@H](C)C[C@@H]2CC[C@@H](O)[C@H](OC)C2)CC(=O)[C@H](C)/C=C(\C)[C@@H](O)[C@@H](OC)C(=O)[C@H](C)C[C@H](C)/C=C/C=C/C=C/1C [SIROLIMUS]	–	> 30 µM (inactive)	> 30 µM (inactive)	> 30 µM (inactive)	> 30 µM (inactive)	–
COc1cc(Nc2ncc3c(n2)-c2ccc(Cl)cc2C(c2c(F)cccc2OC)=NC3)ccc1C(=O)O [ALISERTIB]	> 30 µM (inactive)	–	–	–	> 30 µM (inactive)	> 30 µM (inactive)
O=C(Nc1cc(C(F)(F)F)cc(C(F)(F)F)c1)c1cc(Cl)ccc1O [IMD-0354]	> 30 µM (inactive)	> 30 µM (inactive)	> 30 µM (inactive)	> 30 µM (inactive)	> 30 µM (inactive)	–
CCS(=O)(=O)c1cccc(-c2cc(C(=O)NC3CCN(C)CC3)c(C)c3[nH]c4ncc(C)cc4c23)c1 [TAK-901]	> 30 µM (inactive)	> 30 µM (inactive)	–	–	> 30 µM (inactive)	> 30 µM (inactive)
O=C(Cc1ccc(-c2ccc(OCCN3CCOCC3)cc2)cn1)NCc1ccccc1 [TIRBANIBULIN]	–	–	> 30 µM (inactive)	–	–	> 30 µM (inactive)
N#CC[C@H](C1CCCC1)n1cc(-c2ncnc3[nH]ccc23)cn1 [RUXOLITINIB]	–	> 30 µM (inactive)	–	–	–	–
CO[C@H]1C[C@@H]2CC[C@@H](C)[C@@](O)(O2)C(=O)C(=O)N2CCCC[C@H]2C(=O)O[C@H]([C@H](C)C[C@@H]2CC[C@@H](OP(C)(C)=O)[C@H](OC)C2)CC(=O)[C@H](C)/C=C(\C)[C@@H](O)[C@@H](OC)C(=O)[C@H](C)C[C@H](C)/C=C/C=C/C=C/1C [RIDAFOROLIMUS]	–	> 30 µM (inactive)	–	> 30 µM (inactive)	> 30 µM (inactive)	> 30 µM (inactive)
Cn1ncc(Cl)c1-c1cc(C(=O)N[C@H](CN)Cc2ccc(F)c(F)c2)oc1Cl [UPROSERTIB]	> 30 µM (inactive)	–	–	–	> 30 µM (inactive)	–
CC(=O)NCC(=O)N1[C@@H]2CC[C@H]1c1ccc(Nc3ncc(C(F)(F)F)c(NC4CCC4)n3)cc12 [PF-03814735]	–	–	–	–	> 30 µM (inactive)	> 30 µM (inactive)

Structure (SMILES)	Kd [1]	Kd [2]	Kd (Misshapen-like kinase 1)	Kd [3]	Kd [4]	Kd [5]
C[C@H]1CNCCCN1S(=O)(=O)c1cccc2cncc(F)c12	> 30 µM (inactive)	–	> 30 µM (inactive)	> 30 µM (inactive)	> 30 µM (inactive)	–
C[C@@H](Oc1cc(C(=O)Nc2ccc(C(=O)N3CCN(C)CC3)cc2)nnc1N)c1c(Cl)ccc(F)c1Cl	> 30 µM (inactive)	> 30 µM (inactive)	–	–	–	–
Cc1cccc(-c2nn3c(c2-c2ccnc4ccc(C(N)=O)cc24)CCC3)n1 [GALUNISERTIB]	> 30 µM (inactive)	–	0.018 µM	–	> 30 µM (inactive)	–
COc1cc([C@@H]2c3cc4c(cc3[C@H](O)[C@H]3COC(=O)[C@@H]23)OCO4)cc(OC)c1OC [AXL-1717]	–	> 30 µM (inactive)	–	–	> 30 µM (inactive)	–
Cc1[nH]c(/C=C2\C(=O)Nc3ccccc32)c(C)c1CCC(=O)O [ORANTINIB]	> 30 µM (inactive)	–	–	> 30 µM (inactive)	> 30 µM (inactive)	> 30 µM (inactive)
COCc1c(-c2ccc(NC(=O)Nc3cc(C(F)(F)F)ccc3F)c(F)c2)c2c(N)ncnn2c1CN1CCOCC1	–	> 30 µM (inactive)	–	> 30 µM (inactive)	–	–
CNC(=O)c1ccccc1Sc1ccc2c(/C=C/c3ccccn3)n[nH]c2c1 [AXITINIB]	–	> 30 µM (inactive)	–	–	–	–
CN1CCN(CCOc2cc(OC3CCOCC3)c3c(Nc4c(Cl)ccc5c4OCO5)ncnc3c2)CC1 [SARACATINIB]	> 30 µM (inactive)	–	–	–	> 30 µM (inactive)	> 30 µM (inactive)
COc1ccc(S(=O)(=O)N(C(C)=O)c2ccccc2/C=C/c2cc[n+]([O-])cc2)cc1 [HMN-214]	> 30 µM (inactive)	> 30 µM (inactive)	–	> 30 µM (inactive)	–	–
O=c1[nH]ccc2cc(OC3CCNCC3)ccc12 [SAR-407899 FREE BASE]	> 30 µM (inactive)	–	> 30 µM (inactive)	> 30 µM (inactive)	–	–
CNC(=O)c1cccc2cc(Oc3ccnc4cc(OCC5(N)CC5)c(OC)cc34)ccc12 [LUCITANIB]	–	> 30 µM (inactive)	> 30 µM (inactive)	> 30 µM (inactive)	> 30 µM (inactive)	–
NC(=O)Nc1cc(-c2cccc(F)c2)sc1C(=O)N[C@H]1CCCNC1 [AZD-7762]	–	–	–	–	> 30 µM (inactive)	–
NC(=O)c1c(OCc2c(F)cc(Br)cc2F)nsc1NC(=O)NCCCCN1CCCC1 [OSI-632]	> 30 µM (inactive)	–	–	> 30 µM (inactive)	> 30 µM (inactive)	> 30 µM (inactive)
O=C(Nc1c[nH]nc1-c1nc2cc(CN3CCOCC3)ccc2[nH]1)NC1CC1 [AT-9283]	0.213 µM (active)	0.511 µM	> 30 µM (inactive)	> 30 µM (inactive)	> 30 µM (inactive)	–
Cn1cc(-c2cnn3c(N)c(Br)c([C@@H]4CCCNC4)nc23)cn1 [SCH-900776]	> 30 µM (inactive)	> 30 µM (inactive)	> 30 µM (inactive)	> 30 µM (inactive)	–	–
FC(F)(F)c1ccc(/C=C/c2nc(COc3ccc(CCCCn4ccnn4)cc3)co2)cc1 [MUBRITINIB]	–	–	1.77 µM (active)	> 30 µM (inactive)	> 30 µM (inactive)	–
